One experiment has as its target Histone deacetylase 4 (Homo sapiens, UniProt P56524). Nature of the experiment: Inhibition of N-terminal GST-tagged recombinant human HDAC4 assessed as hydrolase activity using fluorogenic […] as substrate measured after 60 mins by fluorescence analysis.
Experiment [1] deals with T1, Histone deacetylase 8 (Homo sapiens, UniProt Q9BY41).
T1 sequence (Q9BY41 whole entry): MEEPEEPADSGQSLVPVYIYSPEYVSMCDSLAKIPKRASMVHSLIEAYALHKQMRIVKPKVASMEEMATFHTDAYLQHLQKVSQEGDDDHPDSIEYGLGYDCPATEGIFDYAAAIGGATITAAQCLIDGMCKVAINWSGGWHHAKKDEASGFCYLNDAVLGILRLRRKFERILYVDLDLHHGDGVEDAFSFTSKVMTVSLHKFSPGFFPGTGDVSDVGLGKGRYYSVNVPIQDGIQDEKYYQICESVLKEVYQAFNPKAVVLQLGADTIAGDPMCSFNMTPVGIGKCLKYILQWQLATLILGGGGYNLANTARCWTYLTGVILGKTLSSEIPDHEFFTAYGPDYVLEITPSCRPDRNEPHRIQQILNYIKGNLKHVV
Nature of the experiment: Inhibition of recombinant human HDAC8 expressed in Escherichia coli assessed as inhibition constant ki,1 using fluorogenic AC-LGK-tfa-AMC as substrate measured after 60 mins by fluorescence analysis.

The target in experiment [2] is T1, Histone deacetylase 8. Nature of the experiment: Inhibition of recombinant human HDAC8 expressed in Escherichia coli assessed as hydrolase activity using fluorogenic AC-LGK-tfa-AMC as substrate measured after 60 mins by fluorescence analysis.
The target in experiment [3] is T2, Protein deacetylase HDAC6 (Homo sapiens, UniProt Q9UBN7).
T2 sequence (Q9UBN7 whole entry): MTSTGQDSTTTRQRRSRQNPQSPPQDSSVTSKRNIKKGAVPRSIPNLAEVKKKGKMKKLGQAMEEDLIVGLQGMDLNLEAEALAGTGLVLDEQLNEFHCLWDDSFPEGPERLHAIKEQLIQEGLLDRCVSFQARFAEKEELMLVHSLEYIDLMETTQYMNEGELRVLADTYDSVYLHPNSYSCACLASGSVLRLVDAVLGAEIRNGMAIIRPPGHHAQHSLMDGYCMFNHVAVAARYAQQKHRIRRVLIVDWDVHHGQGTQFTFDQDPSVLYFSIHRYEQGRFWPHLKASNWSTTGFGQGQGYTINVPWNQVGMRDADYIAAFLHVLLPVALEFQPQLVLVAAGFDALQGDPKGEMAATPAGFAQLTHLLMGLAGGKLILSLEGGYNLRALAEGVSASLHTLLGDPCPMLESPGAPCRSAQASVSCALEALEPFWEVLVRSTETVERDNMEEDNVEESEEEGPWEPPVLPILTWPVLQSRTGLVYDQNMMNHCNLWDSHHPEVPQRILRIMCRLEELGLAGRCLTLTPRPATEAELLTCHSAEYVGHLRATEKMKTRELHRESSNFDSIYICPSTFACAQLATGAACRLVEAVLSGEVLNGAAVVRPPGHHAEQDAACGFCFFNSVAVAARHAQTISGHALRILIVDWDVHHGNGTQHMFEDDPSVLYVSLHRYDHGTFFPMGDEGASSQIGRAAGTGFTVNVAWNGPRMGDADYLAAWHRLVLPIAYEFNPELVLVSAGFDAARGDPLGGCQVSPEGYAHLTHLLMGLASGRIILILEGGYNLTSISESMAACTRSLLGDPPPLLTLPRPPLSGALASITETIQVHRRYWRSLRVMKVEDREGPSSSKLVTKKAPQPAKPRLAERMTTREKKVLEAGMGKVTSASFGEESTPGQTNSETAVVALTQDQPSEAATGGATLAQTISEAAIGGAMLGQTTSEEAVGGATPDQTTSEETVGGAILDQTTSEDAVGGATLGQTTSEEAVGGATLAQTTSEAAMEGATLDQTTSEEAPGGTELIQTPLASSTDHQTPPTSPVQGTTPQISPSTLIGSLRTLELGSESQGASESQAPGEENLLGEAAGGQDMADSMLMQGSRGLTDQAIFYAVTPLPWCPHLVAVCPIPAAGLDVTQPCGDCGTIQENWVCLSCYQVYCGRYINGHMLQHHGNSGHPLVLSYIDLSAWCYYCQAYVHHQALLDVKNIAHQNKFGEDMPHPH
Nature of the experiment: Inhibition of His-tagged recombinant human HDAC6 expressed in insect cells assessed as hydrolase activity using fluorogenic AC-LGK-ac-AMC as substrate measured after 60 mins by fluorescence analysis.

Chain of Histone deacetylase 4 (P56524 whole entry): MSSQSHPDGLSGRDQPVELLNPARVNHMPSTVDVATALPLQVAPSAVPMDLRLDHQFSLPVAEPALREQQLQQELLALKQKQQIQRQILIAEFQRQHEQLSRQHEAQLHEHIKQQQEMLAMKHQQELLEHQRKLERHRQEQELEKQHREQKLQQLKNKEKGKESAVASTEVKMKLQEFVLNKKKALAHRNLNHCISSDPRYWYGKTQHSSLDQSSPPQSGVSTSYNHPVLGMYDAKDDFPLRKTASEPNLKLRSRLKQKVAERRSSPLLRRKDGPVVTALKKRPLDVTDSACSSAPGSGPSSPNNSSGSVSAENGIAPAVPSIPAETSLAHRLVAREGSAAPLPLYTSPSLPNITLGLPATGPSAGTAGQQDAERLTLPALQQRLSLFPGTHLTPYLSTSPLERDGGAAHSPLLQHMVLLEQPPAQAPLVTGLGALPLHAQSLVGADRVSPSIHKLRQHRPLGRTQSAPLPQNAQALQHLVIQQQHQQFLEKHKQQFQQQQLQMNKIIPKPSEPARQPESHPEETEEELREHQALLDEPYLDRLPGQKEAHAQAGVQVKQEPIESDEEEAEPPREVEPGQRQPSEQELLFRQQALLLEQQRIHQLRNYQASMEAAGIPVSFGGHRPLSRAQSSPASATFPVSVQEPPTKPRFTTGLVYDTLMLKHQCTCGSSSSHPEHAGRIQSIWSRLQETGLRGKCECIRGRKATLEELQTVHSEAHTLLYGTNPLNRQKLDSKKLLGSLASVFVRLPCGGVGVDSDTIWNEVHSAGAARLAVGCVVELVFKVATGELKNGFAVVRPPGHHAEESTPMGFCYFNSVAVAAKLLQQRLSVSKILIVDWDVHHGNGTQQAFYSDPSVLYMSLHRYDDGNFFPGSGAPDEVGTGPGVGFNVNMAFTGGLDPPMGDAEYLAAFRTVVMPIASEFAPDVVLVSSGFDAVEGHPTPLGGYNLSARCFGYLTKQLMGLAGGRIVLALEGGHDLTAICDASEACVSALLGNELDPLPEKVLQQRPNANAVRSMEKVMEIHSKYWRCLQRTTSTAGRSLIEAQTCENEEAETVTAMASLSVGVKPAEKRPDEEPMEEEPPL

For the compound `O=C(CCCCCCC(=O)C(F)(F)F)Nc1ccccc1`, the Ki at Histone deacetylase 4 amounted to 5.1 nM; at Histone deacetylase 8 [1], 7300 nM; at Histone deacetylase 8 [2] it was 33 nM; in experiment [3], 4500 nM.

As usually defined, the Ki is the equilibrium dissociation constant of an inhibitor or competing ligand from its target.

The record behind these values is ChEMBL document CHEMBL3797051 (Medchemcomm, 2016).
